Assay results: patent US20140364438A1, “TRIAZOLOPYRIDINE DERIVATIVES AS A TYROSINE KINASE INHIBITOR” (HANMI PHARM. CO., LTD., priority 2012, published 2014)

Assays:
JAK3 = target: T1, JAK3 (Homo sapiens, UniProt P52333); test: JAK3 kinase inhibitory activity, Z-Lyte Kinase Assay Kit; type: biochemical; details: 60 minutes at room temperature
T1 construct: purchased Invitrogen PV3855
Description: (§1) The compounds prepared in Examples 1 to 5 were tested for JAK3 and BTK kinase inhibitory activity. Kinase inhibitory activity was measured by using Z-Lyte Kinase Assay Kit (Invitrogen), and JAK3 and BTK enzymes were purchased from Invitrogen (PV3855, PV3190).
(§2) Specifically, the compounds of Examples 1 to 5 were diluted with an aqueous solution of 4% DMSO to obtain solutions with concentrations in the range of 1 to 0.0001 μM. Each kinase was diluted to 1 to 10 ng/assay, and ATP was diluted to form a kinase buffer (50 mM HEPES, pH 7.4; 10 mM MgCl2; 1 mM EGTA; and 0.01% BRIJ-35) by calculating an approximate Kd value. The assays were performed in 384-well polystyrene flat-bottomed plates. Peptide substrate having a suitable concentration, 10 μL of mixed kinase solution and 5 μL of ATP solution having a concentration of 5 to 300 μM were added to 5 μL of the diluted solution of the compound, and allowed to react in a mixer for 60 minutes at room temperature. After 60 minutes, 10 μL of fluorescent labeling reagents was added to each mixture so as to allow fluorescent labeling of peptide substrates, followed by adding a finishing solution to complete the reaction. The fluorescence level was determined with a Molecular Device at 400 nm (excitation filter) and 520 nm (emission filter). The kinase inhibitory activities of the compounds were calculated in phosphorylation rates between 0˜400% against the control group (staurosporine or each of kinase inhibitor) according to the reference protocol of the kit, and percentage inhibition was determine and plotted against concentration (x-axis) to calculate 50% inhibitory concentration (IC50). The calculation and analysis of IC50 were carried out by using Microsoft Excel.

BTK = target: T2, BTK (Homo sapiens, UniProt Q06187); test: BTK kinase inhibitory activity, Z-Lyte Kinase Assay Kit; type: biochemical; details: 60 minutes at room temperature
T2 construct: purchased Invitrogen PV3190
Description: as §1, §2

T1 sequence (P52333 781-1124 limits assumed): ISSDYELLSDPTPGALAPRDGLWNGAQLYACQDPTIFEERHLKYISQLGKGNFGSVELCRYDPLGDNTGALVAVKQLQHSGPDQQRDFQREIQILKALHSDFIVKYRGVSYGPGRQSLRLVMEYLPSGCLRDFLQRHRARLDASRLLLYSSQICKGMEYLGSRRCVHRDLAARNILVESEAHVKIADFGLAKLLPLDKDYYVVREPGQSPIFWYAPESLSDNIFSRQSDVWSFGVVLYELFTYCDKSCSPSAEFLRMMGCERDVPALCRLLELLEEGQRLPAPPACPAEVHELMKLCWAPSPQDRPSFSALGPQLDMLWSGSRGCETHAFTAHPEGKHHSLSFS
T2 sequence (Q06187 whole entry): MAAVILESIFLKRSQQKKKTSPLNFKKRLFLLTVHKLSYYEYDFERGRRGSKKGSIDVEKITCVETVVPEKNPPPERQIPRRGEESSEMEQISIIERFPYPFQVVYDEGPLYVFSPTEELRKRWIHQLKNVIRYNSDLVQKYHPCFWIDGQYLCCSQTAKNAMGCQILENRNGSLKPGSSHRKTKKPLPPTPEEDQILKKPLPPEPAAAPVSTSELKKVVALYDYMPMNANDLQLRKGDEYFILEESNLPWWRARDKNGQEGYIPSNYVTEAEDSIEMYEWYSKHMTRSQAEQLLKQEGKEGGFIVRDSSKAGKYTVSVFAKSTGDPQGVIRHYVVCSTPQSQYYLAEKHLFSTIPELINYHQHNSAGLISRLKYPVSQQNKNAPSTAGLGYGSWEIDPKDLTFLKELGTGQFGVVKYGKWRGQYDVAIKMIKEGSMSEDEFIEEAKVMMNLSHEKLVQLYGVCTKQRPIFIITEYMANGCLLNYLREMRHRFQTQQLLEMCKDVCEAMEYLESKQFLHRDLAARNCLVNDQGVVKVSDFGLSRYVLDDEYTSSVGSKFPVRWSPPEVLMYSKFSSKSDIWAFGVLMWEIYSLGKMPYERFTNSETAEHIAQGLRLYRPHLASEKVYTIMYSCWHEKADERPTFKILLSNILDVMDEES

| Compound | IC50 (JAK3; class symbol) | IC50 (BTK; class symbol) | IC50 (JAK3; numeric value in parentheses) | IC50 (BTK; numeric value in parentheses) |
| --- | --- | --- | --- | --- |
| C=CC(=O)Nc1cccc(Oc2cccn3nc(Nc4ccc(N5CCN(C(C)C)CC5)cc4)nc23)c1 [Example 5, N-(3-(2-(4-(4-isopropylpiperazin-1-yl)phenylamino)-[1,2,4]triazolo[1,5-a]pyridin-8-yloxy)phenyl)acrylamide] | ≤ 100 nM | 500 to 1000 nM | – | – |
| C=CC(=O)Nc1cccc(Oc2cccn3nc(Nc4ccc(C(=O)N5CCN(C)CC5)cc4)nc23)c1 [Example 4, N-(3-(2-(4-(4-methylpiperazin-1-carbonyl)phenylamino)-[1,2,4]triazolo[1,5-a]pyridin-8-yloxy)phenyl)acrylamide] | ≤ 100 nM | 100 to 500 nM | – | – |
| C=CC(=O)Nc1cccc(Oc2cccn3nc(Nc4ccc(NC5CCN(C)CC5)c(F)c4)nc23)c1 [Example 2, N-(3-(2-(3-fluoro-4-(1-methylpiperidin-4-ylamino)phenylamino)-[1,2,4]triazolo[1,5-a]pyridin-8-yloxy)phenyl)acrylamide] | ≤ 100 nM | 100 to 500 nM | – | – |

Continued, values first:

| IC50 (JAK3; class symbol) | IC50 (BTK; class symbol) | IC50 (JAK3; numeric value in parentheses) | IC50 (BTK; numeric value in parentheses) | Compound |
| --- | --- | --- | --- | --- |
| ≤ 100 nM | 100 to 500 nM | – | – | C=CC(=O)Nc1cccc(Oc2cccn3nc(Nc4ccc(CN(C)C)cc4)nc23)c1 [Example 3, N-(3-(2-(4-((dimethylamino)methyl)phenylamino)-[1,2,4]triazolo[1,5-a]pyridin-8-yloxy)phenyl)acrylamide] |
| ≤ 100 nM | ≤ 100 nM | 9 nM | 73 nM | C=CC(=O)Nc1cccc(Oc2cccn3nc(Nc4ccc(N5CCN(C)CC5)cc4)nc23)c1 [Example 1, N-(3-(2-(4-(4-methylpiperazin-1-yl)phenylamino)-[1,2,4]triazolo[1,5-a]pyridin-8-yloxy)phenyl)acrylamide] |
